Laboratory results from article PMC5469273, “Discovery of Novel Small-Molecule Inhibitors of LIM Domain Kinase for Inhibiting HIV-1” (Journal of Virology, 2017).

Key:
BRAF = BRAF (Homo sapiens, UniProt P15056); assay: Kinase profiling (Reaction Biology): BRAF
RSK1 = RSK1 (Homo sapiens, UniProt Q15418); assay: Kinase profiling (Reaction Biology): RSK1
STK16 = STK16 (Homo sapiens, UniProt O75716); assay: Kinase profiling (Reaction Biology): STK16
AKT2 = AKT2 (Homo sapiens, UniProt P31751); assay: Kinase profiling (Reaction Biology): AKT2
HIV-1(Vpr-β-lactamase) = assay: BlaM-Vpr-based viral entry assay; type: cell-based; conditions: 100 μM; CEM-SS T cells
ABL1 = ABL1 (Homo sapiens, UniProt P00519); assay: Kinase profiling (Reaction Biology): ABL1
Chain of ABL1 (P00519 whole entry): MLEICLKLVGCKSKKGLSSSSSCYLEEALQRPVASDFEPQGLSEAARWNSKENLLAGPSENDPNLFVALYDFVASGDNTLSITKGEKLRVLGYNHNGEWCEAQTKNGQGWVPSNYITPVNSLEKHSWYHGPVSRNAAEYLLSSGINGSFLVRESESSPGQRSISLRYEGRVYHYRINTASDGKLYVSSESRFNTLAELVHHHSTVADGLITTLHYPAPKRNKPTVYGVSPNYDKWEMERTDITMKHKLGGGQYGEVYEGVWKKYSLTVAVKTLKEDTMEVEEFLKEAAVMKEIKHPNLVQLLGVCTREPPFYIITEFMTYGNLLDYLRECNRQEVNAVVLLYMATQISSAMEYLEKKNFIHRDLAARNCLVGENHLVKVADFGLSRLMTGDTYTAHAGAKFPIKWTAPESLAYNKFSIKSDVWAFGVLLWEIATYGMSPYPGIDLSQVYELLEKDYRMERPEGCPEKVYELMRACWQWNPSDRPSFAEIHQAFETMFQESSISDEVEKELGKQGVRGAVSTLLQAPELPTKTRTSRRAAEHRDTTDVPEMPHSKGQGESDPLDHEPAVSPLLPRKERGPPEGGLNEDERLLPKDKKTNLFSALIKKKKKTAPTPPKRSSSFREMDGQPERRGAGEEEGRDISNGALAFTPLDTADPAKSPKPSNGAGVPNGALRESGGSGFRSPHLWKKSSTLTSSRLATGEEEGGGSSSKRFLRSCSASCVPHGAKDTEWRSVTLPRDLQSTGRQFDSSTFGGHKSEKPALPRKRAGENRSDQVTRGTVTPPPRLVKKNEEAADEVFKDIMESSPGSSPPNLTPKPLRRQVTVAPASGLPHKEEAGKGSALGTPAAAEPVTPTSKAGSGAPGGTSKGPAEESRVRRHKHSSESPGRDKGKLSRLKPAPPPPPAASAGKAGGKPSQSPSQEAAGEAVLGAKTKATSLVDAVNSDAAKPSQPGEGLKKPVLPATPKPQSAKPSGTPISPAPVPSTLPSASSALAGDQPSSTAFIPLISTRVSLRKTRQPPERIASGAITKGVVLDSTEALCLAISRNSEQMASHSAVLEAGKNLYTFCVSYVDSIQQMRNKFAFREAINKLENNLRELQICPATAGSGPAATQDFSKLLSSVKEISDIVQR

TLK1 = TLK1 (Homo sapiens, UniProt Q9UKI8); assay: Kinase profiling (Reaction Biology): TLK1
c-Kit = c-Kit (Homo sapiens, UniProt P10721); assay: Kinase profiling (Reaction Biology): c-Kit
GSK3b = GSK3b (Homo sapiens, UniProt P49841); assay: Kinase profiling (Reaction Biology): GSK3b
CXCR4 = assay: Surface staining of CXCR4 on CEM-SS T cells; type: cell-based, human; conditions: 100 μM, 1 h
ROCK1 = ROCK1 (Homo sapiens, UniProt Q13464); assay: Kinase profiling (Reaction Biology): ROCK1
HIV-1(Env) = assay: 2-LTR circles by real-time PCR (nuclear migration) in CEM-SS T cells; type: cell-based
PDGFRb = PDGFRb (Homo sapiens, UniProt P09619); assay: Kinase profiling (Reaction Biology): PDGFRb
PIM2 = PIM2 (Homo sapiens, UniProt Q9P1W9); assay: Kinase profiling (Reaction Biology): PIM2
TESK1 = TESK1 (Homo sapiens, UniProt Q15569); assay: Kinase profiling (Reaction Biology): TESK1
Chain of TESK1 (Q15569 whole entry): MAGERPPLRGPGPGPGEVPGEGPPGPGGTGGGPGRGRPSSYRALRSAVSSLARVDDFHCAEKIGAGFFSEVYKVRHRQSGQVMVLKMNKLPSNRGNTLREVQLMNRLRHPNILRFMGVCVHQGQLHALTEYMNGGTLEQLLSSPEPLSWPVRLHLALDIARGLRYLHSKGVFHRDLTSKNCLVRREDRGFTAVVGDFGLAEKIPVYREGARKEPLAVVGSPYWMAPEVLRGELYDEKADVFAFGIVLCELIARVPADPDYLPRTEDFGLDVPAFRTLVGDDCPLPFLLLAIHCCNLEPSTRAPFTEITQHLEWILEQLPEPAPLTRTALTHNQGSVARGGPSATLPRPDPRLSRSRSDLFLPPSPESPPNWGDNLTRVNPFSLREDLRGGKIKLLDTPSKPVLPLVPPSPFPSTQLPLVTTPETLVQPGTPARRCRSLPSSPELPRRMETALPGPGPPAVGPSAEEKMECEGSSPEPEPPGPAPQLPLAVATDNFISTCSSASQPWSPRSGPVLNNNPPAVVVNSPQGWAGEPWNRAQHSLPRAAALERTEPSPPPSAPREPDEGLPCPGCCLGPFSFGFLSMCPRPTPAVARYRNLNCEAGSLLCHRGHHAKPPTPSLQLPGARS

HSV-1 = HSV-1 plaque assay in Vero cells; type: cell-based, herpes simplex virus 1
AMPK(A1/B1/G1) = AMPK(A1/B1/G1) (Homo sapiens, UniProt Q13131); assay: Kinase profiling (Reaction Biology): AMPK(A1/B1/G1)
c-Src = c-Src (Homo sapiens, UniProt P12931); assay: Kinase profiling (Reaction Biology): c-Src
c-MET = c-MET (Homo sapiens, UniProt P08581); assay: Kinase profiling (Reaction Biology): c-MET
[1] = tested on: HIV DNA-transfected HEK293 cells; type: cell-based, HIV-1; conditions: different concentrations, 48 h
HIV-1(NL4-3) = assay: microbe, parasite or virus in culture; type: cell-based; conditions: Human immunodeficiency virus 1, NL43; pretreated 1 h, HIV-1(NL4-3) 3 h, washed, 48 h; luciferase; read-out: IC50, inhibition of HIV
MEK1 = MEK1 (Homo sapiens, UniProt Q02750); assay: Kinase profiling (Reaction Biology): MEK1
Chain of MEK1 (Q02750 whole entry): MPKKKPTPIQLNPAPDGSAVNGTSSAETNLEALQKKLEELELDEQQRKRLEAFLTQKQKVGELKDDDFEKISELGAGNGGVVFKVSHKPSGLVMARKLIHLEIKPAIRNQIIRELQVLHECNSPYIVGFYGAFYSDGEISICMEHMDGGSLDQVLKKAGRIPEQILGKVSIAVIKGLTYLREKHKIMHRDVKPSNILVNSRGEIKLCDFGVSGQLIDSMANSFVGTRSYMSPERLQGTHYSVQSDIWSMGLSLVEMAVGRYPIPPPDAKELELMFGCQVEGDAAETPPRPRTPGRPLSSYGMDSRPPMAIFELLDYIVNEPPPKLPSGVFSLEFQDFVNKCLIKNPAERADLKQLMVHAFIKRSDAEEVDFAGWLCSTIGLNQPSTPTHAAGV

HIV-1(Nef-luciferase) = assay: Nef-luciferase-based viral entry assay; type: cell-based; conditions: 100 μM; data not shown
Rev-CEM-GFP-Luc cells = conditions: 4 h treatment; all concentrations tested up to 200 μM
EPHA3 = EPHA3 (Homo sapiens, UniProt P29320); assay: Kinase profiling (Reaction Biology): EPHA3
TBK1 = TBK1 (Homo sapiens, UniProt Q9UHD2); assay: Kinase profiling (Reaction Biology): TBK1
CD4 = assay: Surface staining of CD4 on CEM-SS T cells; type: cell-based, human; conditions: 100 μM
CK2a = CK2a (Homo sapiens, UniProt P68400); assay: Kinase profiling (Reaction Biology): CK2a
Chain of CK2a (P68400 whole entry): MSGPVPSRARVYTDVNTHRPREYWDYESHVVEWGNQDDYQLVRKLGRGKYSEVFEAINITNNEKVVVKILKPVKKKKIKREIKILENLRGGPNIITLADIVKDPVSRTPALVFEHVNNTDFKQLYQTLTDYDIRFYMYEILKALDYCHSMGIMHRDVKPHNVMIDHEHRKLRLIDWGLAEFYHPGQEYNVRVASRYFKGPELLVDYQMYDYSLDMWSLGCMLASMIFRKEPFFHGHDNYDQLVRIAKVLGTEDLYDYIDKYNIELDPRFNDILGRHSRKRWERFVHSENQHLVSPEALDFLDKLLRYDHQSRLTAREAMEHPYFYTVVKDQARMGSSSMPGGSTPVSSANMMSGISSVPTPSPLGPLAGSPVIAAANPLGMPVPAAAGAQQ

PKCa = PKCa (Homo sapiens, UniProt P17252); assay: Kinase profiling (Reaction Biology): PKCa
in vitro = conditions: human
LRRK2 (G2019S) = LRRK2 (G2019S) (Homo sapiens, UniProt Q5S007, G2019S); assay: Kinase profiling (Reaction Biology): LRRK2 (G2019S)
Chain of LRRK2 (G2019S) (Q5S007 whole entry G2019S): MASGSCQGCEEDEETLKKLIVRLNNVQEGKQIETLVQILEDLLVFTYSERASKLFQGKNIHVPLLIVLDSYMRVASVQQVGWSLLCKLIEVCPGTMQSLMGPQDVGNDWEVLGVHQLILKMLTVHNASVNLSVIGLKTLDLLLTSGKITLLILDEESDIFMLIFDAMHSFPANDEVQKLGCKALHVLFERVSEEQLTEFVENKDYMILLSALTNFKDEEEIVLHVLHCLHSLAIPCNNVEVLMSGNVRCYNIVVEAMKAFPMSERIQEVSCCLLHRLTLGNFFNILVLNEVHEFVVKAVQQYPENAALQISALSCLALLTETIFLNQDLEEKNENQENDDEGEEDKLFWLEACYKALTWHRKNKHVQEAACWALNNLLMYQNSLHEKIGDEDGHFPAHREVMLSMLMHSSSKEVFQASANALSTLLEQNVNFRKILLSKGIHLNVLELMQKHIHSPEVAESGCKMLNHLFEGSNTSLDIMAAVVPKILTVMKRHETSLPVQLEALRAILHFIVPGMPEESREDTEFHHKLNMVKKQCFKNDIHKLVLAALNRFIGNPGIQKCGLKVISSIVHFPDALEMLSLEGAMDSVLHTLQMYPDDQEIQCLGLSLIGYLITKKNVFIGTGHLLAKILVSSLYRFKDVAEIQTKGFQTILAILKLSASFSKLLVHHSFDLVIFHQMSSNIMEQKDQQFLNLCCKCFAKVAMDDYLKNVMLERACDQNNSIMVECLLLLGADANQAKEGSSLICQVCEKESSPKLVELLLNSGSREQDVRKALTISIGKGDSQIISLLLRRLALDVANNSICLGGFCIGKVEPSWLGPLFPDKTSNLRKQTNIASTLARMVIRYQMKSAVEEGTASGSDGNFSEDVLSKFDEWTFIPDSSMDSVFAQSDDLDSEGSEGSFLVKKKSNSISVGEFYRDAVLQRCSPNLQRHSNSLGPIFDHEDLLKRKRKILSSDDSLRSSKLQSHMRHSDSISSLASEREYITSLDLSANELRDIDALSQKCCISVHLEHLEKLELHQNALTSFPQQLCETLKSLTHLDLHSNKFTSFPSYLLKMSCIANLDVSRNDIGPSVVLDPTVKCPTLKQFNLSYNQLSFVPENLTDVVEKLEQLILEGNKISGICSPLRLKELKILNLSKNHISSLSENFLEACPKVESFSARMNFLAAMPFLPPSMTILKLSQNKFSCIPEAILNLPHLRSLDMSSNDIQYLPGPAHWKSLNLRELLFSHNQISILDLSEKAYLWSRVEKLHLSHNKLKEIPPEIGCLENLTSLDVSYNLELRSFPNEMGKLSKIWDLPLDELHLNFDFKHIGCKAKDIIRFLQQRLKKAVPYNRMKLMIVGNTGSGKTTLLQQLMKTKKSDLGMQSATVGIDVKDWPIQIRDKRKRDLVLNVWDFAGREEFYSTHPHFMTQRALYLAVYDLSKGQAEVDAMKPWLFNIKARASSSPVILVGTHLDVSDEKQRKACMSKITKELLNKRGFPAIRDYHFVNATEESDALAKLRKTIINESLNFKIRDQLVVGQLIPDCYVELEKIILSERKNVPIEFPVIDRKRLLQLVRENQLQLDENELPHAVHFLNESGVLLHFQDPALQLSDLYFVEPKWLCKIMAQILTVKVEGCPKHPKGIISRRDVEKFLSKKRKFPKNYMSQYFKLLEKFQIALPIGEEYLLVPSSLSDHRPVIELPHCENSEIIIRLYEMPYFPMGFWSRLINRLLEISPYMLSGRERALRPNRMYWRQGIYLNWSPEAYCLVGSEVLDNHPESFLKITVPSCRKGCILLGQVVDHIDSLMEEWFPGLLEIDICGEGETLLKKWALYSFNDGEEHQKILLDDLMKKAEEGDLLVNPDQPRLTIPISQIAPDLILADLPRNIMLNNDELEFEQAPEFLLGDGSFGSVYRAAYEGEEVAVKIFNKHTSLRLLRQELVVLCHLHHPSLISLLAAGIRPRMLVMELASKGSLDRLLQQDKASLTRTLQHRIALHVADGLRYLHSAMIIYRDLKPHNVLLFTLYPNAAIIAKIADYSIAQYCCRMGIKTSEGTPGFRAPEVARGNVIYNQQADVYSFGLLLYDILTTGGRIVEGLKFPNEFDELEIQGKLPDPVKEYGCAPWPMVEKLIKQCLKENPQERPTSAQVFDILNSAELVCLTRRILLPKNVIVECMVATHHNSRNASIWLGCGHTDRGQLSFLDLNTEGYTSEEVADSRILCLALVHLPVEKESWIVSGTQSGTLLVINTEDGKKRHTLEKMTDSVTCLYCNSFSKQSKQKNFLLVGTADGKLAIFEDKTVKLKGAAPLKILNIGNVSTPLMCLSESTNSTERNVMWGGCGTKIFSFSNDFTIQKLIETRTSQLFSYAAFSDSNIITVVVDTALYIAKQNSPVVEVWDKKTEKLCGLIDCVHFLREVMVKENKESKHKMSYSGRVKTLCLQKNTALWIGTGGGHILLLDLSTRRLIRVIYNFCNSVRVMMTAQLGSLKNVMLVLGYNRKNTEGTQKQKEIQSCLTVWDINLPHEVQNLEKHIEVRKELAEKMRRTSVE

Vero cells = conditions: up to 100 μM R10015
TAOK1 = TAOK1 (Homo sapiens, UniProt Q7L7X3); assay: Kinase profiling (Reaction Biology): TAOK1
RVFV-Luc (MP12) = assay: microbe, parasite or virus in culture; type: cell-based; conditions: Rift Valley fever virus, Vero, 24 h, read-out: IC50, inhibition of RVFV
ALK = ALK (Homo sapiens, UniProt Q9UM73); assay: Kinase profiling (Reaction Biology): ALK
NEK1 = NEK1 (Homo sapiens, UniProt Q96PY6); assay: Kinase profiling (Reaction Biology): NEK1
EBOV (Zaire) = type: cell-based, Zaire ebolavirus; conditions: HFF-1 cells, pretreated 2 h, MOI 2.5, 48 h in continuous presence

COC(=O)c1ccc2[nH]c(C3CCN(c4ncnc5[nH]cc(Cl)c45)CC3)nc2c1 [Compound R10015, Methyl 2-(1-(5-chloro-7H-pyrrolo[2,3-d]pyrimidin-4-yl)piperidin-4-yl)-1H-benzo[d]imidazole-5-carboxylate]
activity at 1 µM (BRAF): 91.9% | activity at 1 µM (RSK1): 47.2% | activity at 1 µM (STK16): 48.6% | activity at 1 µM (AKT2): 73.1% | viral entry, HIV-1(Vpr-β-lactamase) (HIV-1(Vpr-β-lactamase)): did not significantly inhibit | activity at 1 µM (ABL1): 89.2% | activity at 1 µM (TLK1): 98.5% | activity at 1 µM (c-Kit): 81.3% | activity at 1 µM (GSK3b): 67.8% | surface expression of CXCR4 (CXCR4): did not alter | activity at 1 µM (ROCK1): 42.3% | viral nuclear migration (2-LTR circles) (HIV-1(Env)): inhibited | activity at 1 µM (PDGFRb): 78.6% | activity at 1 µM (PIM2): 97.6% | activity at 1 µM (TESK1): 90.2% | inhibition of HSV-1 (viral plaques) (HSV-1): inhibition | activity at 1 µM (AMPK(A1/B1/G1)): 76.6% | activity at 1 µM (c-Src): 92.4% | activity at 1 µM (c-MET): 82.1% | virion release from HIV DNA-transfected HEK293 cells [1]: inhibited | IC50 (HIV-1(NL4-3)): 14.9 µM | activity at 1 µM (MEK1): 75.6% | viral entry, HIV-1(Nef-luciferase) (HIV-1(Nef-luciferase)): did not significantly inhibit | cytotoxicity (Rev-CEM-GFP-Luc cells): no detectable cytotoxicity | activity at 1 µM (EPHA3): 91.1% | activity at 1 µM (TBK1): 82% | surface expression of CD4 (CD4; 1 h): did not alter | surface density of CD4 (CD4; prolonged treatment 4 h): slightly decreased | activity at 1 µM (CK2a): 94.2% | activity at 1 µM (PKCa): 47.5% | viability at 100 µM (in vitro): 89.2% | activity at 1 µM (LRRK2 (G2019S)): 6.7% | inhibition at 1 µM (LRRK2 (G2019S); read-out: inhibition of LRRK2): ≥ 90% | drug toxicity (Vero cells): No drug toxicity | activity at 1 µM (TAOK1): 54% | IC50 (RVFV-Luc (MP12)): ~12.5 µM | activity at 1 µM (ALK): 95.5% | activity at 1 µM (NEK1): 67.2% | inhibition of EBOV (EBOV (Zaire)): dose-dependent inhibition
